Our source for the viability, Activity and inhibition values is ChEMBL document CHEMBL1156028, “Synthesis of 1,6,7,8-tetrahydro-naphtho[2,3-d]-azepino[4,5-b]indole-9,14-diones and their inhibitory effects on pro-inflammatory cytokines” (Bioorg Med Chem Lett, 2009).

The source made the active and inactive calls. The calls are words filed in the database; no cut-off is given here.

Series [1] can be described thus: Cytotoxicity against mouse RAW264.7 cells assessed as cell viability at 1 to 5 ug/ml after 4 hrs by MTT assay. The conditions noted are these: read-out: Activity. The format is cell-based. For orientation: Formazan colour is commonly taken as a measure of viable cells.
The test system of series [2] is RAW264.7. Briefly: Antiinflammatory activity in mouse RAW264.7 cells assessed as inhibition of LPS-induced nitric oxide production after 24 hrs by immunoassay. The series is classed as functional, cell-based.
Series [3] has as its system RAW264.7. The experiment in a line: Antiinflammatory activity in mouse RAW264.7 cells assessed as inhibition of LPS-induced PGE2 production at 5 ug/ml after 24 hrs by immunoassay. The format is functional, cell-based.
For series [4], the system named is RAW264.7. The experiment in a line: Antiinflammatory activity in mouse RAW264.7 cells assessed as inhibition of LPS-induced PGE2 production at 1 ug/ml after 24 hrs by immunoassay. The format is functional, cell-based.
In series [5] the test system is RAW264.7. The experiment in a line: Antiinflammatory activity in mouse RAW264.7 cells assessed as inhibition of LPS-induced TNFalpha production after 24 hrs by immunoassay. The format is functional, cell-based.
The test system of series [6] is RAW264.7. The experiment in a line: Antiinflammatory activity in mouse RAW264.7 cells assessed as inhibition of LPS-induced IL1-beta production at 1 to 5 ug/ml after 24 hrs by immunoassay. The series is classed as functional, cell-based.
The test system of series [7] is RAW264.7. The experiment in a line: Antiinflammatory activity in mouse RAW264.7 cells assessed as inhibition of LPS-induced IL-6 production at 1 to 5 ug/ml after 24 hrs by immunoassay. The format is functional, cell-based.

As for `COc1cccc2c1C(=O)C1=C(NCCc3c1[nH]c1ccccc31)C2=O`, the viability at 4 h in series [1] was found to be 58%. For the same compound, the Activity result in series [2] and in series [5] was “Dose-dependent effect” in each case. Further, in series [3], the result was Active. Besides, the inhibition entry in series [4] was “inactive”. Also, the outcome in series [6] and in series [7] was inactive.
`CN1CCc2c([nH]c3ccccc23)C2=C1C(=O)c1ccccc1C2=O`: in series [1], the viability at 4 h was 58%. Moreover, the Activity entry in series [2] and in series [5] was “Dose-dependent effect” throughout. Further, the result in series [3] was Active. Also, the result in series [6] and in series [7] was inactive.
`COc1ccc2[nH]c3c(c2c1)CCNC1=C3C(=O)c2ccccc2C1=O`: the viability at 4 h in series [1] is 58%. The Activity entry in series [2] and in series [5] was “Dose-dependent effect” throughout. Further, the outcome in series [3] was Active. For the same compound, the inhibition result in series [4] is “inactive”. Besides, the result in series [6] and in series [7] was inactive.
As to `CCCN1CCc2c([nH]c3ccccc23)C2=C1C(=O)c1ccccc1C2=O`, the viability at 4 h in series [1] turned out to be 58%. In addition, the Activity entry in series [2] and in series [5] was “Dose-dependent effect” each time. Further, the outcome in series [3] was Active. Further, the result in series [6] and in series [7] was inactive.
`C=CCN1CCc2c([nH]c3ccccc23)C2=C1C(=O)c1ccccc1C2=O`: the viability at 4 h in series [1] came out at 24%. In addition, the Activity result in series [2] and in series [5] was “Dose-dependent effect” throughout. Besides, in series [3], the result was Active. In addition, the result in series [6] and in series [7] was inactive.
Take `O=C1C2=C(C(=O)c3ccccc31)c1[nH]c3ccccc3c1CCN2`: the viability at 4 h in series [1] is 58%. For the same compound, the Activity result in series [2] and in series [5] was “Dose-dependent effect” throughout. The result in series [3] was Active. Further, in series [4], the inhibition result was “inactive”. Besides, the result in series [6] and in series [7] was inactive.
Take `O=C1C2=C(C(=O)c3ccccc31)N(Cc1ccccc1)CCc1c2[nH]c2ccccc12`: the viability at 4 h in series [1] turned out to be 58%. The Activity entry in series [2] and in series [5] was “Dose-dependent effect” in each case. For the same compound, in series [3], the outcome was Active. Further, in series [4], the inhibition entry is “inactive”. Moreover, the outcome in series [6] and in series [7] was inactive.
